The source of these data is ChEMBL document CHEMBL5150042, “Phenolic furanochromene hydrazone derivatives: Synthesis, antioxidant activity, ferroptosis inhibition, DNA cleavage and DNA molecular docking studies” (Bioorg Med Chem, 2022).

The source made the active and inactive calls. No cut-off for these calls is given here.

Assay [1] relates to DNA. Nature of the assay: Induction of copper-mediated Escherichia coli supercoiled pBR322 DNA cleavage assessed as increase in open circular form of DNA with small amount of linear form at 1 mM incubated for 24 hrs in presence of Cu2+ ion by agarose gel electrophoresis analysis. The assay is classed as nucleic-acid assay.
Assay [2] is described as follows: Antioxidant activity assessed as trolox equivalent of Cu2+ reducing activity incubated for 30 mins by CUPRAC assay relative to trolox. In kind it is functional.
Assay [3] can be described thus: Antioxidant activity assessed as DPPH radical scavenging activity incubated for 30 mins under dark condition by microplate reader based assay. The assay is classed as functional.
A further assay has as its system HaCaT. Nature of the assay: Anti-ferroptotic activity against erastin-induced ferroptosis in human HaCaT cells assessed as cell viability at 5 uM pretreated with compound for 4 hrs followed by erastin challenge for 24 hrs by MTT assay (reference value: 45%). Conditions: time 28 hrs, read-out: Activity. In kind it is functional. In general terms: Tetrazolium dyes change colour on reduction, which living cells bring about.

Assay [4] concerns DNA. In words: Induction of copper-mediated Escherichia coli supercoiled pBR322 DNA cleavage assessed as increase in cleaved DNA with significant amount of supercoiled form at 1 mM incubated for 24 hrs in presence of Cu2+ ion by agarose gel electrophoresis analysis. The assay is classed as nucleic-acid assay.
Assay [5] has as its system DNA. In words: Induction of copper-mediated Escherichia coli supercoiled pBR322 DNA cleavage at 100 uM incubated for 24 hrs in presence of Cu2+ ion by agarose gel electrophoresis analysis. The assay is classed as nucleic-acid assay.
Assay [6] deals with DNA. In words: Induction of copper-mediated Escherichia coli supercoiled pBR322 DNA cleavage assessed as increase in open circular form of DNA at 1 mM incubated for 24 hrs in presence of Cu2+ ion by agarose gel electrophoresis analysis. The assay is classed as nucleic-acid assay.
The subject of assay [7] is DNA. Nature of the assay: Induction of copper-mediated Escherichia coli supercoiled pBR322 DNA cleavage assessed as cleavage of DNA into smaller fragments at 1 mM incubated for 24 hrs in presence of Cu2+ ion by agarose gel electrophoresis analysis. In kind it is nucleic-acid assay.
The test system of assay [8] is DNA. Nature of the assay: Induction of copper-mediated Escherichia coli supercoiled pBR322 DNA cleavage assessed as increase in open circular form and linear form of DNA at 100 uM incubated for 24 hrs in presence of Cu2+ ion by agarose gel electrophoresis analysis. In kind it is nucleic-acid assay.
The subject of assay [9] is DNA. In words: Induction of Escherichia coli supercoiled pBR322 DNA cleavage incubated for 90 mins in presence of Cu2+ ion by agarose gel electrophoresis analysis. Conditions: dose 3.9-500 µM, DDE = dose-dependent effect. The assay is classed as nucleic-acid assay.

By IC50 is commonly meant the concentration needed to halve the response being measured. For `COc1cc(O)c(/C=N/NC(=O)c2cc3ccc4c(c3o2)C=CC(C)(C)O4)c(OC)c1`, the outcome in the assay on DNA [1] was Active. In assay [2], the Ratio worked out at 0.97. In addition, the 50% inhibitory concentration (IC50) in assay [3] (read-out: IC50) is greater than 100 µM. The viability at 5 µM in the assay with HaCaT worked out at 41%.

In the case of `CC1(C)C=Cc2c(ccc3cc(C(=O)N/N=C/c4c(O)cc(O)cc4O)oc23)O1`, in assay [2], the Ratio came out at 1.36. Moreover, the concentration for half-maximal inhibition (IC50) in assay [3] (read-out: IC50) stood at 81 µM. Also, in the assay with HaCaT, the viability at 5 µM was 56%. The outcome with DNA [4] was Active.

Turning to `CC1(C)C=Cc2c(ccc3cc(C(=O)N/N=C/c4ccc(O)cc4O)oc23)O1`, the Ratio in assay [2] amounted to 1.42. Also, the IC50 in assay [3] (read-out: IC50) stood at 70.1 µM.

Take `COc1cc(/C=N/NC(=O)c2cc3ccc4c(c3o2)C=CC(C)(C)O4)ccc1O`: the result in the assay with DNA [1] and in the assay with DNA [5] was Active. Moreover, the Ratio in assay [2] was determined as 1.75. Besides, the half-inhibitory concentration (IC50) in [3] (read-out: IC50) was found to be 87.8 µM. The viability at 5 µM with HaCaT was determined as 44%.

With `CC1(C)C=Cc2c(ccc3cc(C(=O)N/N=C/c4cc(O)ccc4O)oc23)O1`, the Ratio in assay [2] amounted to 1.8. Also, the IC50 in assay [3] (read-out: IC50) amounted to 9.1 µM. Also, the viability at 5 µM in the assay on HaCaT turned out to be 69%. The outcome in the assay on DNA [6] was Active.

Regarding `COc1cc(/C=N/NC(=O)c2cc3ccc4c(c3o2)C=CC(C)(C)O4)cc([N+](=O)[O-])c1O`, the result in the assay with DNA [1] and with DNA [5] was Active. Besides, the Ratio in assay [2] was 1.52. For the same molecule, the IC50 in assay [3] (read-out: IC50) is greater than 100 µM. Besides, the viability at 5 µM with HaCaT came out at 59%.

Consider `COc1ccc(O)c(/C=N/NC(=O)c2cc3ccc4c(c3o2)C=CC(C)(C)O4)c1`, for which the outcome in the assay on DNA [1] was Active. In addition, the Ratio in assay [2] worked out at 1.22. Moreover, the IC50 in [3] (read-out: IC50) is greater than 100 µM. Besides, the viability at 5 µM with HaCaT turned out to be 44%.

Regarding `COc1cc(/C=N/NC(=O)c2cc3ccc4c(c3o2)C=CC(C)(C)O4)cc(Br)c1O`, the outcome in the assay with DNA [1] and with DNA [5] was Active. In addition, the Ratio in assay [2] turned out to be 1.09. Also, the half-inhibitory concentration (IC50) in assay [3] (read-out: IC50) was greater than 100 µM. In addition, the viability at 5 µM with HaCaT came to 59%.

As for `CC1(C)C=Cc2c(ccc3cc(C(=O)N/N=C/c4cccc(O)c4)oc23)O1`, the result in the assay with DNA [5] and in the assay with DNA [6] was Active.

As for `COc1ccc(/C=N/NC(=O)c2cc3ccc4c(c3o2)C=CC(C)(C)O4)c(O)c1`, in the assay with DNA [1], the outcome was Active. In addition, the Ratio in [2] was found to be 1.01. Moreover, in [3] (read-out: IC50), the IC50 was 67.4 µM. Moreover, the viability at 5 µM in the assay with HaCaT was greater than 50%.

With `CC1(C)C=Cc2c(ccc3cc(C(=O)N/N=C/c4cc(O)c(O)cc4O)oc23)O1`, the Ratio in assay [2] stood at 2.43. Moreover, the IC50 in assay [3] (read-out: IC50) was found to be 24.3 µM. The viability at 5 µM with HaCaT worked out at 56%. Moreover, the outcome with DNA [7] was Active.

For `CC1(C)C=Cc2c(ccc3cc(C(=O)N/N=C/c4ccc(O)cc4)oc23)O1`, the Ratio in assay [2] came to 0.79. Further, in assay [3] (read-out: IC50), the IC50 was greater than 100 µM. The outcome in the assay on DNA [5] and in the assay with DNA [6] was Active.

In the case of `CC1(C)C=Cc2c(ccc3cc(C(=O)N/N=C/c4ccc(O)c(O)c4O)oc23)O1`, the Ratio in assay [2] was found to be 2.89. In addition, the IC50 in assay [3] (read-out: IC50) is 10.1 µM. Also, in the assay with HaCaT, the viability at 5 µM is 70%. Further, the result in the assay with DNA [6] and with DNA [8] was Active.

With `CC1(C)C=Cc2c(ccc3cc(C(=O)N/N=C/c4cc(O)c(O)c(O)c4)oc23)O1`, in [2], the Ratio was 2.59. Moreover, the IC50 in [3] (read-out: IC50) amounted to 27.9 µM. For the same molecule, the viability at 5 µM in the assay with HaCaT came out at 56%. Also, the result in the assay with DNA [4] was Active.

Take `Cc1ccc(O)c(/C=N/NC(=O)c2cc3ccc4c(c3o2)C=CC(C)(C)O4)c1`: in the assay with DNA [1], the outcome was Active. Moreover, the Ratio in [2] is 0.95. Moreover, the IC50 in [3] (read-out: IC50) was greater than 100 µM. Further, the viability at 5 µM in the assay on HaCaT is 62%.

Take `COc1cc(/C=N/NC(=O)c2cc3ccc4c(c3o2)C=CC(C)(C)O4)cc(OC)c1O`: the result in the assay with DNA [1] and in the assay on DNA [5] was Active. In assay [2], the Ratio came out at 2.22. Also, the half-maximal inhibitory concentration (IC50) entry in [3] is on record as “Nd(Insoluble)”. The viability at 5 µM in the assay on HaCaT came to 57%.

Take `CC1(C)C=Cc2c(ccc3cc(C(=O)N/N=C/c4ccc(O)c(O)c4)oc23)O1`: in assay [2], the Ratio came out at 3.97. Besides, the 50% inhibitory concentration (IC50) in assay [3] (read-out: IC50) worked out at 5.92 µM. Besides, the viability at 5 µM in the assay with HaCaT turned out to be 60%. In addition, in the assay on DNA [9], the Activity entry is “Dde”. Besides, the result with DNA [8] and with DNA [7] was Active.

With `O=c1c(O)c(-c2ccc(O)c(O)c2)oc2cc(O)ccc12` [FISETIN], in the assay on HaCaT, the viability at 5 µM was determined as 70%.

`COc1cccc(/C=N/NC(=O)c2cc3ccc4c(c3o2)C=CC(C)(C)O4)c1O`: the result in the assay with DNA [1] was Active. For the same molecule, the Ratio in assay [2] was determined as 0.85. Further, the 50% inhibitory concentration (IC50) in assay [3] (read-out: IC50) was greater than 100 µM. Further, the viability at 5 µM in the assay with HaCaT came out at 44%.

In the case of `COc1cc(/C=N/NC(=O)c2cc3ccc4c(c3o2)C=CC(C)(C)O4)cc(I)c1O`, the outcome in the assay on DNA [1] and in the assay with DNA [5] was Active. For the same molecule, the Ratio in [2] worked out at 0.99. Moreover, the IC50 in [3] (read-out: IC50) is greater than 100 µM. Besides, in the assay with HaCaT, the viability at 5 µM turned out to be 59%.

Turning to `CC1(C)C=Cc2c(ccc3cc(C(=O)N/N=C/c4ccccc4O)oc23)O1`, in assay [2], the Ratio came out at 0.48. Besides, the viability at 5 µM in the assay with HaCaT is 62%. In addition, the result with DNA [6] was Active.

As to `CC1(C)C=Cc2c(ccc3cc(C(=O)N/N=C/c4cccc(O)c4O)oc23)O1`, the Ratio in assay [2] is 1.75. In addition, the half-inhibitory concentration (IC50) in assay [3] (read-out: IC50) turned out to be 6.04 µM. The outcome with DNA [4] was Active.

For `Cc1cc(/C=N/NC(=O)c2cc3ccc4c(c3o2)C=CC(C)(C)O4)cc(C)c1O`, the outcome with DNA [1] and with DNA [5] was Active. The Ratio in assay [2] turned out to be 1.11. For the same molecule, the IC50 in [3] (read-out: IC50) turned out to be 61.2 µM. Also, in the assay with HaCaT, the viability at 5 µM stood at 50%.

Turning to `COc1ccc(/C=N/NC(=O)c2cc3ccc4c(c3o2)C=CC(C)(C)O4)cc1O`, the outcome in the assay with DNA [1] and in the assay on DNA [5] was Active. In addition, the Ratio in [2] was found to be 1.36. Further, the half-maximal inhibitory concentration (IC50) in [3] (read-out: IC50) was greater than 100 µM. For the same molecule, the viability at 5 µM in the assay on HaCaT is 44%.

Regarding `CC1(C)C=Cc2c(ccc3cc(C(=O)N/N=C/c4cc(O)cc(O)c4)oc23)O1`, in assay [2], the Ratio came out at 1.27. Also, the half-maximal inhibitory concentration (IC50) in [3] (read-out: IC50) was greater than 100 µM. For the same molecule, the result with DNA [5] and in the assay on DNA [6] was Active.

Turning to `O=C1O[C@H]([C@@H](O)CO)C(O)=C1O` [ASCORBIC ACID], in [2], the Ratio was 0.72. In addition, in [3] (read-out: IC50), the half-maximal inhibitory concentration (IC50) came to 51.2 µM.
